{
  "source": "patent US20040082606A1",
  "about": "“Excitatory amino acid receptor antagonists” (priority 2003, published 2004)",
  "system": "dural protein extravasation",
  "experiment": "Animal model of dural protein extravasation (electrical stimulation of the trigeminal ganglion, Evans Blue)",
  "assay_type": "in vivo",
  "settings": "administered orally to rats",
  "protocol": "The following animal model may be employed to determine the ability of the compounds of Formula I or Formula Ia to inhibit protein extravasation, an exemplary functional assay of the neuronal mechanism of migraine.\nA. Harlan Sprague-Dawley rats (225-325 g) or guinea pigs from Charles River Laboratories (225-325 g) are anesthetized with sodium pentobarbital intraperitoneally (65 mg/kg or 45 mg/kg respectively) and are placed in a stereotaxic frame David Kopf Instruments) with the incisor bar set at −3.5 mm for rats or −4.0 mm for guinea pigs. Following a midline sagital scalp incision, two pairs of bilateral holes are drilled through the skull (6 mm posterially, 2.0 and 4.0 mm laterally in rats; 4 mm posteriorly and 3.2 and 5.2 mm laterally in guinea pigs, all coordinates referenced to bregma). […]\nD. A fluorescence microscope (Zeiss) equipped with a grating monchromator and a spectrophotometer is used to quantify the amount of Evans Blue dye in each sample. An excitation wavelength of approximately 535 nm is utilized and the emission intensity at 600 nm is determined. […] This facilitates the computer-controlled movement of the stage with fluorescence measurements at 25 points ([…]) on each dural sample. The mean and standard deviation of the measurements are determined by the computer. […]",
  "data": [
    {"smiles": "CCOC(=O)[C@@H]1C[C@H]2C[C@@H](CN3CC(F)(F)C[C@H]3C(=O)OCC)CC[C@H]2CN1.Cl.Cl", "note": "[3S,4aR,6S,8aR Ethyl 6-(((2S)-2-Ethoxycarbonyl)4,4-difluoropyrrolidinyl)methyl)-1,2,3,4,4a,5,6,7,8,8a-decahydroisoquinoline-3-carboxylate.dihydrochloride]", "values": [
      {"measurement": "ID100 (dose that inhibits the extravasation by 100%)", "result": "approximately 0.01 ng/Kg"}
    ]}
  ]
}
